ChEMBL document CHEMBL1201862, “PubChem BioAssay data set” (2004)
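Growth conditions: 96-well plates. Treatment: test compound, 48 hours, 5 concentrations. Analysis: linear interpolation between bracketing concentrations; unreached endpoints set to highest concentration. The concentration for 50% growth inhibition is given as GI50.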 Activity calls are given as the source filed them. No stated cut-off is given here; in the data, active = GI50 up to about 1.1 µM and inactive = higher.

Experiments:
Assay in all cases: NCI anticancer screen, dose series, 48 h
HL-60 = system: HL-60
EKVX = system: EKVX
MCF7 = system: MCF7
UO-31 = system: UO-31
IGROV-1 = system: IGROV-1
CAKI-1 = system: CAKI-1
OVCAR-8 = system: OVCAR-8
BT-549 = system: BT-549
OVCAR-4 = system: OVCAR-4
786-0 = system: 786-0
HOP-62 = system: HOP-62
K562 = system: K562
MDA-MB-231 = system: MDA-MB-231
A549 = system: A549
KM12 = system: KM12
SNB-75 = system: SNB-75
OVCAR-3 = system: OVCAR-3
MDA-MB-435 = system: MDA-MB-435
NCI-H23 = system: NCI-H23
SK-MEL-2 = system: SK-MEL-2

Measured: GI50

CN1CCN(c2nc3cc(F)ccc3n3cccc23)CC1
inactive: HL-60 39.1 µM | EKVX 33.7 µM | MCF7 15.1 µM | UO-31 40.1 µM | IGROV-1 30.8 µM | CAKI-1 22 µM | OVCAR-8 51.8 µM | BT-549 49.2 µM | OVCAR-4 30.3 µM | 786-0 40.4 µM | HOP-62 31 µM | K562 20.4 µM | MDA-MB-231 44.2 µM | A549 36.9 µM | KM12 39.2 µM | SNB-75 29 µM | OVCAR-3 82.8 µM | MDA-MB-435 23.4 µM | NCI-H23 36 µM

[N-]=[N+]=NC1(N=[N+]=[N-])C(=O)NN=C(c2ccccc2)C1=O (stereo not drawn)
inactive: HL-60 35.3 µM | EKVX > 100 µM | MCF7 62.7 µM | UO-31 > 100 µM | IGROV-1 > 100 µM | OVCAR-8 82.2 µM | BT-549 > 100 µM | OVCAR-4 57.4 µM | 786-0 > 100 µM | HOP-62 > 100 µM | K562 38.9 µM | MDA-MB-231 > 100 µM | A549 > 100 µM | KM12 > 100 µM | SNB-75 > 100 µM | OVCAR-3 68.4 µM | MDA-MB-435 18.4 µM | NCI-H23 > 100 µM

O=C(O)CC[N+]1=CCC(c2ccccc2)(c2ccccc2)O1
inactive: EKVX > 100 µM | MCF7 > 100 µM | UO-31 > 100 µM | IGROV-1 > 100 µM | CAKI-1 > 100 µM | OVCAR-8 > 100 µM | BT-549 > 100 µM | OVCAR-4 > 100 µM | 786-0 > 100 µM | HOP-62 > 100 µM | K562 > 100 µM | MDA-MB-231 > 100 µM | A549 > 100 µM | SK-MEL-2 > 100 µM | SNB-75 44.1 µM | OVCAR-3 > 100 µM | MDA-MB-435 > 100 µM | NCI-H23 > 100 µM

CN(C)/C=N/c1ccc2c3c(cccc13)-c1ccccc1-2
inactive: HL-60 5.58 µM | EKVX 10.5 µM | MCF7 16.8 µM | UO-31 5.22 µM | IGROV-1 15.5 µM | OVCAR-8 14.6 µM | BT-549 17 µM | OVCAR-4 15.7 µM | 786-0 12.6 µM | HOP-62 16 µM | K562 10.2 µM | MDA-MB-231 14.3 µM | A549 11.5 µM | SK-MEL-2 17.1 µM | SNB-75 13 µM | OVCAR-3 14.9 µM | MDA-MB-435 15.1 µM | NCI-H23 17.2 µM

COC(=O)CNC(=O)Nc1cc(N2C(=O)ON3C2C(C)(C)N(O)C3(C)C)ccc1C (stereo not drawn)
inactive: EKVX > 100 µM | MCF7 > 100 µM | UO-31 > 100 µM | IGROV-1 > 100 µM | CAKI-1 > 100 µM | OVCAR-8 > 100 µM | BT-549 > 100 µM | OVCAR-4 > 100 µM | 786-0 > 100 µM | HOP-62 > 100 µM | K562 > 100 µM | MDA-MB-231 > 100 µM | A549 > 100 µM | SK-MEL-2 59.4 µM | KM12 > 100 µM | SNB-75 > 100 µM | OVCAR-3 > 100 µM | MDA-MB-435 > 100 µM | NCI-H23 > 100 µM

Nc1nc(S)nc2snnc12
inactive: HL-60 > 100 µM | MCF7 > 100 µM | UO-31 > 100 µM | IGROV-1 > 100 µM | CAKI-1 > 100 µM | OVCAR-8 > 100 µM | BT-549 > 100 µM | 786-0 > 100 µM | HOP-62 > 100 µM | K562 > 100 µM | MDA-MB-231 > 100 µM | A549 > 100 µM | SK-MEL-2 > 100 µM | KM12 > 100 µM | SNB-75 > 100 µM | OVCAR-3 > 100 µM | MDA-MB-435 > 100 µM | NCI-H23 > 100 µM

O=C(CNc1ccc(Cl)cc1Cl)NC1C=Cc2ccc(S(=O)(=O)Nc3ccc(Cl)cc3Cl)cc2C1=O (stereo not drawn)
inactive: HL-60 > 100 µM | EKVX > 100 µM | MCF7 > 100 µM | UO-31 54.2 µM | IGROV-1 > 100 µM | CAKI-1 > 100 µM | OVCAR-8 > 100 µM | BT-549 > 100 µM | 786-0 > 100 µM | HOP-62 > 100 µM | K562 > 100 µM | MDA-MB-231 > 100 µM | A549 > 100 µM | SK-MEL-2 > 100 µM | KM12 > 100 µM | SNB-75 > 100 µM | OVCAR-3 > 100 µM | MDA-MB-435 > 100 µM | NCI-H23 > 100 µM

CCOC(=O)c1ccc(-n2cnc(-c3ccc([N+](=O)[O-])cc3)c2)cc1
inactive: HL-60 > 100 µM | EKVX > 100 µM | MCF7 72.9 µM | UO-31 > 100 µM | IGROV-1 > 100 µM | CAKI-1 > 100 µM | OVCAR-8 > 100 µM | BT-549 36.5 µM | 786-0 > 100 µM | HOP-62 94.2 µM | K562 > 100 µM | MDA-MB-231 > 100 µM | A549 > 100 µM | SK-MEL-2 > 100 µM | KM12 > 100 µM | SNB-75 40.6 µM | OVCAR-3 79.8 µM | MDA-MB-435 > 100 µM | NCI-H23 82.6 µM

CCCCCCC(O)C(=O)OC1C2C(CC1(C)C)C(O)C13OC1C(O)C1(CO1)[C@@]23C (stereo partly drawn)
inactive: HL-60 > 100 µM | EKVX 54.5 µM | MCF7 36.4 µM | UO-31 66.8 µM | IGROV-1 43 µM | CAKI-1 > 100 µM | OVCAR-8 69.8 µM | BT-549 50.1 µM | OVCAR-4 22.7 µM | 786-0 25.4 µM | HOP-62 58.7 µM | K562 30.3 µM | MDA-MB-231 48.6 µM | A549 28.1 µM | KM12 47.6 µM | SNB-75 8.83 µM | OVCAR-3 32.1 µM | MDA-MB-435 50.9 µM | NCI-H23 58.2 µM

COC(=O)C1=C(C)NC(C)=C([N+](=O)[O-])C1c1cccc(N=O)c1 (stereo not drawn)
inactive: HL-60 > 100 µM | EKVX 21.1 µM | MCF7 17.4 µM | UO-31 12.1 µM | IGROV-1 16 µM | CAKI-1 7.96 µM | OVCAR-8 16.3 µM | BT-549 16.7 µM | OVCAR-4 11.9 µM | 786-0 14.2 µM | HOP-62 19.2 µM | K562 4.47 µM | MDA-MB-231 18.3 µM | A549 18.9 µM | SK-MEL-2 18.2 µM | KM12 13.6 µM | OVCAR-3 15 µM | MDA-MB-435 12.7 µM | NCI-H23 18.5 µM

CC1(C)CCC[C@]2(C)[C@@H]1CC[C@@]13O[C@@H]1C1=C(CO)C(=O)OC1=C[C@@H]23
inactive: EKVX 13.9 µM | MCF7 26.4 µM | UO-31 11.7 µM | IGROV-1 5.68 µM | CAKI-1 18.8 µM | BT-549 22 µM | OVCAR-4 19.2 µM | 786-0 14.3 µM | HOP-62 25.6 µM | K562 21.4 µM | MDA-MB-231 31.1 µM | A549 10.4 µM | SK-MEL-2 22.8 µM | KM12 11.9 µM | SNB-75 30.5 µM | MDA-MB-435 20.5 µM | NCI-H23 17.5 µM
